Columns and labels:
[1] = tested on: Puccinia recondita f. sp. Tritici; experiment: Puccinia recondita f. sp. tritici / wheat / leaf disc curative (brown rust); type: in vivo; details: foliar, 200 ppm in the applied formulation, wheat leaf segments cv. Kanzler, applied 1 day after inoculation, compared to untreated, assessed 6 to 8 days after application, read-out: disease control
Experimental: Leaf disks or leaf segments of various plant species are cut from plants grown in a greenhouse. The cut leaf disks or segments are placed in multiwell plates (24-well format) onto water agar. The leaf disks are sprayed with a test solution before (preventative) or after (curative) inoculation. Compounds to be tested are prepared as DMSO solutions (max. 10 mg/ml) which are diluted to the appropriate concentration with 0.025% Tween20 just before spraying. The inoculated leaf disks or segments are incubated under defined conditions (temperature, relative humidity, light, etc.) according to the respective test system. A single evaluation of disease level is carried out 3 to 14 days after inoculation, depending on the pathosystem. Percent disease control relative to the untreated check leaf disks or segments is then calculated.
Wheat leaf segments cv. Kanzler are placed on agar in multiwell plates (24-well format). The leaf segments are then inoculated with a spore suspension of the fungus. Plates were stored in darkness at 19° C. and 75% relative humidity. The formulated test compound diluted in water was applied 1 day after inoculation. The leaf segments were incubated at 19° C. and 75% relative humidity under a light regime of 12 hours light/12 hours darkness in a climate cabinet and the activity of a compound was assessed as percent disease control compared to untreated when an appropriate level of disease damage appears in untreated check leaf segments (6 to 8 days after application).
The following compounds at 200 ppm in the applied formulation give at least 80% disease control in this test when compared to untreated control leaf disks under the same conditions, which show extensive disease development.

[2] = tested on: Glomerella lagenarium (Colletotrichum lagenarium); experiment: Glomerella lagenarium (Colletotrichum lagenarium) liquid culture / cucumber / preventative (anthracnose); type: cell-based; details: Colletotrichum orbiculare; 20 ppm in the applied formulation; conidia in PDB nutrient broth, 24° C.; 3 to 4 days after application; compared to untreated; read-out: disease control (inhibition of growth measured photometrically)
Procedure, shortened: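 Test compound, diluted from DMSO, was mixed in microtiter wells with fungal conidia taken from cryogenic storage and suspended in PDB nutrient broth. After 3 to 4 days at 24 °C, photometric growth measurement gave antifungal activity as a percentage of the untreated control.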

[3] = tested on: Puccinia recondita f. sp. Tritici; experiment: Puccinia recondita f. sp. tritici / wheat / leaf disc preventative (brown rust); type: in vivo; details: foliar, 200 ppm in the applied formulation, wheat leaf segments cv. Kanzler, inoculated 1 day after application, compared to untreated, assessed 7 to 9 days after application, read-out: disease control
Procedure, shortened: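 Compound, diluted from DMSO solution into aqueous 0.025% Tween20, is sprayed at 200 ppm onto cut wheat segments (cv. Kanzler) placed on water agar. One day on, segments receive a fungal spore suspension and are incubated at 19° C., 75% rh, 12 h photoperiod, with % control vs untreated scored at 7–9 days.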

CC(C)N(Cc1ccc(-c2noc(C(F)(F)F)n2)cc1)S(=O)(=O)C1CC1 [Compound 1.98, N-isopropyl-N-[[4-[5-(trifluoromethyl)-1,2,4-oxadiazol-3-yl]phenyl]methyl] cyclopropanesulfonamide]
≥ 80%: pest or weed control at 200 ppm [1] | inhibition at 20 ppm [2] | pest or weed control at 200 ppm [3]

O=S(=O)(CC1CCOC1)NCc1ccc(-c2noc(C(F)(F)F)n2)c(F)c1 (stereo not drawn) [Compound 3.20, N-[[3-fluoro-4-[5-(trifluoromethyl)-1,2,4-oxadiazol-3-yl]phenyl]methyl]-1-tetrahydrofuran-3-yl-methanesulfonamide]
≥ 80%: pest or weed control at 200 ppm [1] | inhibition at 20 ppm [2] | pest or weed control at 200 ppm [3]

O=S(=O)(CC1CCOC1)NCc1ccc(-c2noc(C(F)(F)F)n2)cc1F (stereo not drawn) [Compound 3.30, N-[[2-fluoro-4-[5-(trifluoromethyl)-1,2,4-oxadiazol-3-yl]phenyl]methyl]-1-tetrahydrofuran-3-yl-methanesulfonamide]
≥ 80%: pest or weed control at 200 ppm [1] | inhibition at 20 ppm [2] | pest or weed control at 200 ppm [3]

Cn1ccc(S(=O)(=O)NCc2ccc(-c3noc(C(F)(F)F)n3)cc2F)n1 [Compound 3.24, N-[[2-fluoro-4-[5-(trifluoromethyl)-1,2,4-oxadiazol-3-yl]phenyl]methyl]-1-methyl-pyrazole-3-sulfonamide]
≥ 80%: pest or weed control at 200 ppm [1] | inhibition at 20 ppm [2] | pest or weed control at 200 ppm [3]

CCCN(Cc1ccc(-c2noc(C(F)(F)F)n2)cc1)S(=O)(=O)CCOC [Compound 1.73, 2-methoxy-N-propyl-N-[[4-[5-(trifluoromethyl)-1,2,4-oxadiazol-3-yl]phenyl]methyl] ethanesulfonamide]
≥ 80%: pest or weed control at 200 ppm [1] | inhibition at 20 ppm [2] | pest or weed control at 200 ppm [3]

CN(Cc1ccc(-c2noc(C(F)(F)F)n2)cc1)S(=O)(=O)CC1CC1 [Compound 1.52, 1-cyclopropyl-N-methyl-N-[[4-[5-(trifluoromethyl)-1,2,4-oxadiazol-3-yl]phenyl]methyl] methanesulfonamide]
≥ 80%: pest or weed control at 200 ppm [1] | inhibition at 20 ppm [2] | pest or weed control at 200 ppm [3]

CN(Cc1ccc(-c2noc(C(F)(F)F)n2)cc1)S(=O)(=O)CC1CCOC1 (stereo not drawn) [Compound 1.47, N-methyl-1-tetrahydrofuran-3-yl-N-[[4-[5-(trifluoromethyl)-1,2,4-oxadiazol-3-yl]phenyl]methyl] methanesulfonamide]
≥ 80%: pest or weed control at 200 ppm [1] | inhibition at 20 ppm [2] | pest or weed control at 200 ppm [3]

CCS(=O)(=O)NCc1ccc(-c2noc(C(F)(F)F)n2)c(F)c1 [Compound 2.24, N-[[3-fluoro-4-[5-(trifluoromethyl)-1,2,4-oxadiazol-3-yl]phenyl]methyl] ethanesulfon-amide]
≥ 80%: pest or weed control at 200 ppm [1] | inhibition at 20 ppm [2] | pest or weed control at 200 ppm [3]

CCCS(=O)(=O)N(C)Cc1ccc(-c2noc(C(F)(F)F)n2)cc1 [Compound 1.25, N-methyl-N-[[4-[5-(trifluoromethyl)-1,2,4-oxadiazol-3-yl]phenyl]methyl] propane-1-sulfonamide]
≥ 80%: pest or weed control at 200 ppm [1] | inhibition at 20 ppm [2] | pest or weed control at 200 ppm [3]

CN(Cc1ccc(-c2noc(C(F)(F)F)n2)cc1)S(=O)(=O)c1ccn(C)n1 [Compound 1.41, N,1-dimethyl-N-[[4-[5-(trifluoromethyl)-1,2,4-oxadiazol-3-yl]phenyl]methyl] pyrazole-3-sulfonamide]
≥ 80%: pest or weed control at 200 ppm [1] | inhibition at 20 ppm [2] | pest or weed control at 200 ppm [3]

O=S(=O)(CC1CC1)NCc1ccc(-c2noc(C(F)(F)F)n2)c(F)c1 [Compound 3.21, 1-cyclopropyl-N-[[3-fluoro-4-[5-(trifluoromethyl)-1,2,4-oxadiazol-3-yl]phenyl]methyl] methanesulfonamide]
≥ 80%: pest or weed control at 200 ppm [1] | inhibition at 20 ppm [2] | pest or weed control at 200 ppm [3]

C/C=C/S(=O)(=O)N(Cc1ccc(-c2noc(C(F)(F)F)n2)cc1)C(C)C [Compound 1.84, (E)-N-isopropyl-N-[[4-[5-(trifluoromethyl)-1,2,4-oxadiazol-3-yl]phenyl]methyl] prop-1-ene-1-sulfonamide]
≥ 80%: pest or weed control at 200 ppm [1] | inhibition at 20 ppm [2] | pest or weed control at 200 ppm [3]

CCN(Cc1ccc(-c2noc(C(F)(F)F)n2)cc1)S(=O)(=O)CC(=O)OC [Compound 1.59, methyl 2-[ethyl-[[4-[5-(trifluoromethyl)-1,2,4-oxadiazol-3-yl]phenyl]methyl]sulfamoyl]acetate]
≥ 80%: pest or weed control at 200 ppm [1] | inhibition at 20 ppm [2] | pest or weed control at 200 ppm [3]

O=S(=O)(NCc1ccc(-c2noc(C(F)(F)F)n2)c(F)c1)C1CC1 [Compound 3.19, N-[[3-fluoro-4-[5-(trifluoromethyl)-1,2,4-oxadiazol-3-yl]phenyl]methyl] cyclopropanesulfon-amide]
≥ 80%: pest or weed control at 200 ppm [1] | inhibition at 20 ppm [2] | pest or weed control at 200 ppm [3]

COCCS(=O)(=O)N(C)Cc1ccc(-c2noc(C(F)(F)F)n2)cc1 [Compound 1.49, 2-methoxy-N-methyl-N-[[4-[5-(trifluoromethyl)-1,2,4-oxadiazol-3-yl]phenyl]methyl] ethanesulfonamide]
≥ 80%: pest or weed control at 200 ppm [1] | inhibition at 20 ppm [2] | pest or weed control at 200 ppm [3]

CCN(Cc1ccc(-c2noc(C(F)(F)F)n2)cc1)S(=O)(=O)C1CC1 [Compound 1.33, N-ethyl-N-[[4-[5-(trifluoromethyl)-1,2,4-oxadiazol-3-yl]phenyl]methyl] cyclopropanesulfonamide]
≥ 80%: pest or weed control at 200 ppm [1] | inhibition at 20 ppm [2] | pest or weed control at 200 ppm [3]

Cn1ccc(S(=O)(=O)NCc2ccc(-c3noc(C(F)(F)F)n3)cc2)n1 [Compound 3.10, 1-methyl-N-[[4-[5-(trifluoromethyl)-1,2,4-oxadiazol-3-yl]phenyl]methyl] pyrazole-3-sulfonamide]
≥ 80%: pest or weed control at 200 ppm [1] | inhibition at 20 ppm [2] | pest or weed control at 200 ppm [3]

CCCN(Cc1ccc(-c2noc(C(F)(F)F)n2)cc1)S(C)(=O)=O [Compound 1.79, N-propyl-N-[[4-[5-(trifluoromethyl)-1,2,4-oxadiazol-3-yl]phenyl]methyl] methanesulfonamide]
≥ 80%: pest or weed control at 200 ppm [1] | inhibition at 20 ppm [2] | pest or weed control at 200 ppm [3]

CNS(=O)(=O)N(C)Cc1ccc(-c2noc(C(F)(F)F)n2)cc1 [Compound 1.56, 3-[4-[[methyl (methylsulfamoyl)amino]methyl]phenyl]-5-(trifluoromethyl)-1,2,4-oxadiazole]
≥ 80%: pest or weed control at 200 ppm [1] | inhibition at 20 ppm [2] | pest or weed control at 200 ppm [3]

CCN(Cc1ccc(-c2noc(C(F)(F)F)n2)cc1)S(=O)(=O)c1ccn(C)n1 [Compound 1.29, N-ethyl-1-methyl-N-[[4-[5-(trifluoromethyl)-1,2,4-oxadiazol-3-yl]phenyl]methyl] pyrazole-3-sulfonamide]
≥ 80%: pest or weed control at 200 ppm [1] | inhibition at 20 ppm [2] | pest or weed control at 200 ppm [3]

CCN(Cc1ccc(-c2noc(C(F)(F)F)n2)c(F)c1)S(=O)(=O)N(C)C [Compound 1.106, N-(dimethylsulfamoyl)-N-[[3-fluoro-4-[5-(trifluoromethyl)-1,2,4-oxadiazol-3-yl]phenyl]methyl] ethanamine]
≥ 80%: pest or weed control at 200 ppm [1] | inhibition at 20 ppm [2] | pest or weed control at 200 ppm [3]

C/C=C/S(=O)(=O)NCc1ccc(-c2noc(C(F)(F)F)n2)c(F)c1 [Compound 2.19, (E)-N-[[3-fluoro-4-[5-(trifluoromethyl)-1,2,4-oxadiazol-3-yl]phenyl]methyl] prop-1-ene-1-sulfonamide]
≥ 80%: pest or weed control at 200 ppm [1] | inhibition at 20 ppm [2] | pest or weed control at 200 ppm [3]

O=S(=O)(CC1CC1)NCc1ccc(-c2noc(C(F)(F)F)n2)cc1F [Compound 3.31, 1-cyclopropyl-N-[[2-fluoro-4-[5-(trifluoromethyl)-1,2,4-oxadiazol-3-yl]phenyl]methyl] methanesulfonamide]
≥ 80%: pest or weed control at 200 ppm [1] | inhibition at 20 ppm [2] | pest or weed control at 200 ppm [3]

COCCS(=O)(=O)NCc1ccc(-c2noc(C(F)(F)F)n2)c(F)c1 [Compound 2.17, N-[[3-fluoro-4-[5-(trifluoromethyl)-1,2,4-oxadiazol-3-yl]phenyl]methyl]-2-methoxy-ethanesulfon-amide]
≥ 80%: pest or weed control at 200 ppm [1] | inhibition at 20 ppm [2] | pest or weed control at 200 ppm [3]
